Experimental data from PubChem BioAssay AID2060622 (Molecular Pharmacology Branch, DTP, NCI, 2025).

Test system: 242566-281-R-J2-PDC complex spheroid viability
Assay: Anticancer human tumor 242566-281-R-J2-PDC patient-derived pancreatic carcinoma cell line growth inhibition [CLK]
Conditions: for IC50: curve of first compound; for viability, T/C: stronger effect = lower value
Text: A high-throughput screen of multi-cell type tumor spheroids was designed to identify active combinations of […] and targeted small molecules. Complex spheroids include a stromal component modeled by human endothelial cells (HUVEC) and fibroblasts modeled by human mesenchymal stem cells (MSCs). The concentration ranges selected for each drug and investigational agent were based upon clinically achievable concentrations if the clinical Cmax of the agent was known.
Compounds. The drugs and investigational agents: cirtuvivint (SM08502; NSC835563), CC-671 (NSC850746), vemurafenib (NSC761431), tapotoclax (NSC804041), sotorasib (NSC818433), adagrasib (NSC831453), MRTX-1133 (NSC836407), BAY2416964 (NSC825713), copanlisib (NSC816437), inavolisib (NSC800729), abemaciclib (NSC768073), osimertinib (NSC779217), entinostat (NSC756642), eltanexor (KPT-8602, NSC794443), venetoclax (NSC766270), ceralasertib (NSC777638), bortezomib (NSC756655), olaparib (NSC753686), talazoparib (NSC767125), alisertib (NSC759677), peposertib (NSC802822), gemcitabine (NSC613327), 5-fluorouracil (NSC19893), SN-38 (NSC673596), oxaliplatin (NSC266046), paclitaxel (NSC125973), and doxorubicin (NSC123127), were obtained from the National Cancer Institute (NCI) Developmental Therapeutics Program Chemical Repository. The FDA-approved anticancer drug set is available from the Developmental Therapeutics Program at https://dtp.cancer.gov/organization/dscb/obtaining/available plates.htm. […] The stock solutions were prepared in dimethyl sulfoxide (DMSO, Sigma-Aldrich, St. Louis, MO, cat. D2650), except for the platinum complexes which were prepared in saline (Quality Biological, Gaithersburg, MD, cat. 114-055-101), at 800-fold the tested concentration and stored at -70 degrees C prior to their use. All drugs and investigational agents were tested over a range starting from a high concentration at or near the clinical Cmax and decreasing in half-log increments. If the clinical Cmax for an agent had not been determined, the highest concentration tested was 10 microM.
Cell Culture. All cells were maintained in an incubator at 37 degrees C and 5% CO2 with 95% humidity. The PDC lines were cultured according to standard operating procedures established by the NCI PDMR. Briefly, all PDCs were thawed and cultured in Matrigel-coated flasks prepared with a working solution of 1X Ham's F-12 nutrient mix, without supplementation (Invitrogen, Waltham, MA, cat. 11765054), 100 U/mL penicillin-streptomycin (Invitrogen, cat. 15140122), and 2.5% Matrigel (Corning Inc., Corning, NY, cat. 354248) for the first three passages. The 947758-054-R-J2-PDC line was cultured in 6B/Colon 1A media, which includes advanced DMEM/F-12 (Thermo Fisher Scientific, cat. 12634028), 10 mM HEPES (Thermo Fisher Scientific, cat. 15630080), 1X GlutaMAX supplement (Thermo Fisher Scientific, cat. 35050061), 0.1 mg/mL primocin (InvivoGen, cat. ant-pm-2), 10% defined fetal bovine serum, heat inactivated (HyClone Laboratories Inc., cat. SH30070.03HI), 1.25 mM N-Acetyl-L-cysteine (Sigma-Aldrich, cat. A9165), 10 mM nicotinamide (Sigma-Aldrich, cat. N0636), 1X B-27 supplement (Thermo Fisher Scientific, cat. 17504044), 1X N-2 supplement (Thermo Fisher Scientific, cat. 17502048), and 10 microM Y-27632 dihydrochloride (Tocris Bioscience, cat. 1254). The 876862-298-R-J1-PDC was cultured in 6E media, which includes all 6B/Colon 1A media components plus 50% L-WRN conditioned media (ATCC, cat. CRL-3276), 50 ng/mL recombinant human EGF recombinant protein (hEGF; Thermo Fisher Scientific, cat. PHG0311), 10 ng/mL recombinant human fibroblast growth factor 10 (hGFG-10; PeproTech, cat. 100-26), 1 ng/mL recombinant human fibroblast growth factor 2 (hFGF-2; PeproTech, cat. 100-18B), and 1 µM prostaglandin E2 (PGE2; Tocris, cat. 2296). The 227483-062-R1-J1-PDC line was cultured in Panc media, containing all 6E components except hFGF-2, with the addition of 500 nM SB-431542 (Selleckchem, cat. S1067) and 10 nM gastrin (Tocris, cat. 3006). […]

[1] = second compound 0.0316 µM, first compound 0.0316 µM
[2] = second compound 0.0316 µM, first compound 0.1 µM
[3] = second compound 0.0316 µM, first compound 0.316 µM
[4] = second compound 0.0316 µM, first compound 1 µM
[5] = second compound 0.0316 µM, first compound 3.16 µM
[6] = second compound 0.0316 µM, first compound 10 µM
[7] = second compound 0.1 µM, first compound 0.0316 µM
[8] = second compound 0.1 µM, first compound 0.1 µM
[9] = second compound 0.1 µM, first compound 0.316 µM
[10] = second compound 0.1 µM, first compound 1 µM
[11] = second compound 0.1 µM, first compound 3.16 µM
[12] = second compound 0.1 µM, first compound 10 µM
[13] = second compound 0.316 µM, first compound 0.0316 µM
[14] = second compound 0.316 µM, first compound 0.1 µM
[15] = second compound 0.316 µM, first compound 0.316 µM
[16] = second compound 0.316 µM, first compound 1 µM
[17] = second compound 0.316 µM, first compound 3.16 µM
[18] = second compound 0.316 µM, first compound 10 µM
[19] = second compound 1 µM, first compound 0.0316 µM
[20] = second compound 1 µM, first compound 0.1 µM
[21] = second compound 1 µM, first compound 0.316 µM
[22] = second compound 1 µM, first compound 1 µM
[23] = second compound 1 µM, first compound 3.16 µM
[24] = second compound 1 µM, first compound 10 µM
[25] = second compound 3.16 µM, first compound 0.0316 µM
[26] = second compound 3.16 µM, first compound 0.1 µM
[27] = second compound 3.16 µM, first compound 0.316 µM
[28] = second compound 3.16 µM, first compound 1 µM
[29] = second compound 3.16 µM, first compound 3.16 µM
[30] = second compound 3.16 µM, first compound 10 µM
[31] = second compound 10 µM, first compound 0.0316 µM
[32] = second compound 10 µM, first compound 0.1 µM
[33] = second compound 10 µM, first compound 0.316 µM
[34] = second compound 10 µM, first compound 1 µM
[35] = second compound 10 µM, first compound 3.16 µM
[36] = second compound 10 µM, first compound 10 µM
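Note: spheroids exposed to compounds for 7 days before readout.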
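Throughout, for viability, T/C: 100% = DMSO vehicle control wells.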

`Nc1ccccc1NC(=O)c1ccc(CNC(=O)OCc2cccnc2)cc1` + CNC(=O)c1ccc(Nc2nc(OC3CCCC3)c3c(-c4ccc5nc(C)oc5c4)c[nH]c3n2)c(OC)c1 gave an IC50 (second compound 0.0316 µM) of 7.7 µM, an IC50 (second compound 0.1 µM) of 7.54 µM and an IC50 (second compound 0.316 µM) of 5.8 µM. The IC50 (second compound 1 µM) was 2.7 µM, the IC50 (second compound 3.16 µM) was 1.67 µM and the IC50 (second compound 10 µM) was less than 0.0316 µM. The viability, T/C [1] was 86.9%, the viability, T/C [2] was 101% and the viability, T/C [3] was 101%. For the same compound, the viability, T/C [4] was 149%, the viability, T/C [5] was 116% and the viability, T/C [6] was 32.2%. It also gave a viability, T/C [7] of 81.1%, a viability, T/C [8] of 104% and a viability, T/C [9] of 103%. For the same compound, the viability, T/C [10] was 128%, the viability, T/C [11] was 109% and the viability, T/C [12] was 32.1%. It also gave a viability, T/C [13] of 89.6%, a viability, T/C [14] of 78% and a viability, T/C [15] of 85.6%. The viability, T/C [16] was 94.7%, the viability, T/C [17] was 80.8% and the viability, T/C [18] was 22.2%. The viability, T/C [19] was 75.7%, the viability, T/C [20] was 70.2% and the viability, T/C [21] was 61.8%. It also gave a viability, T/C [22] of 73.4%, a viability, T/C [23] of 46.8% and a viability, T/C [24] of 14%. It also gave a viability, T/C [25] of 60.4%, a viability, T/C [26] of 52.9% and a viability, T/C [27] of 52.5%. The viability, T/C [28] was 63.9%, the viability, T/C [29] was 40.5% and the viability, T/C [30] was 10.3%. For the same compound, the viability, T/C [31] was 50%, the viability, T/C [32] was 44.4% and the viability, T/C [33] was 48.6%. It also gave a viability, T/C [34] of 54%, a viability, T/C [35] of 37.6% and a viability, T/C [36] of 7.66%.
In the case of `CC1(C)CCC(CN2CCN(c3ccc(C(=O)NS(=O)(=O)c4ccc(NCC5CCOCC5)c([N+](=O)[O-])c4)c(Oc4cnc5[nH]ccc5c4)c3)CC2)=C(c2ccc(Cl)cc2)C1` + CNC(=O)c1ccc(Nc2nc(OC3CCCC3)c3c(-c4ccc5nc(C)oc5c4)c[nH]c3n2)c(OC)c1, the IC50 (second compound 0.0316 µM) is reported as greater than 10 µM, the IC50 (second compound 0.1 µM) is reported as greater than 10 µM and the IC50 (second compound 0.316 µM) is reported as 10 µM. For the same compound, the IC50 (second compound 1 µM) was greater than 10 µM, the IC50 (second compound 3.16 µM) was greater than 10 µM and the IC50 (second compound 10 µM) was greater than 10 µM. The viability, T/C [1] was 80%, the viability, T/C [2] was 95.8% and the viability, T/C [3] was 113%. The viability, T/C [4] was 123%, the viability, T/C [5] was 115% and the viability, T/C [6] was 96.4%. It also gave a viability, T/C [7] of 83%, a viability, T/C [8] of 92% and a viability, T/C [9] of 97.2%. For the same compound, the viability, T/C [10] was 131%, the viability, T/C [11] was 105% and the viability, T/C [12] was 73.9%. For the same compound, the viability, T/C [13] was 87.3%, the viability, T/C [14] was 96.6% and the viability, T/C [15] was 72%. The viability, T/C [16] was 92.4%, the viability, T/C [17] was 84.8% and the viability, T/C [18] was 50%. It also gave a viability, T/C [19] of 71.2%, a viability, T/C [20] of 68.4% and a viability, T/C [21] of 69.7%. It also gave a viability, T/C [22] of 73%, a viability, T/C [23] of 77.9% and a viability, T/C [24] of 60.4%. The viability, T/C [25] was 51.9%, the viability, T/C [26] was 54% and the viability, T/C [27] was 57.8%. For the same compound, the viability, T/C [28] was 61.8%, the viability, T/C [29] was 66.3% and the viability, T/C [30] was 45.4%. For the same compound, the viability, T/C [31] was 54.6%, the viability, T/C [32] was 49.2% and the viability, T/C [33] was 54.3%. For the same compound, the viability, T/C [34] was 55.3%, the viability, T/C [35] was 60.2% and the viability, T/C [36] was 46.8%.
